The values that follow come from patent publication US11541028B2, “Peptide pharmaceuticals for treatment of NASH and other disorders” (Mederis Diabetes LLC, priority 2018, dated 2023).

One test deals with T1, human GLP-1 receptor (Homo sapiens, UniProt P43220).
T1 construct: host or cells: CHO cells
Kind of test: DiscoveRx LeadHunter cellular assay, cAMP stimulation, GLP-1 receptor in CHO cells. The format is cell-based. Particulars: human GLP-1 receptor in CHO cells (DiscoveRx); read-out: EC50 cAMP GLP-1 R.

The target of the next test is T2, human glucagon receptor (Homo sapiens, UniProt P47871).
T2 construct: host or cells: CHO cells
Description: DiscoveRx LeadHunter cellular assay, cAMP stimulation, glucagon receptor in CHO cells. The format is cell-based.

Each structure is given as a SMILES string. pEC50: −log10 of the molar value.

T1 sequence (P43220 24-463): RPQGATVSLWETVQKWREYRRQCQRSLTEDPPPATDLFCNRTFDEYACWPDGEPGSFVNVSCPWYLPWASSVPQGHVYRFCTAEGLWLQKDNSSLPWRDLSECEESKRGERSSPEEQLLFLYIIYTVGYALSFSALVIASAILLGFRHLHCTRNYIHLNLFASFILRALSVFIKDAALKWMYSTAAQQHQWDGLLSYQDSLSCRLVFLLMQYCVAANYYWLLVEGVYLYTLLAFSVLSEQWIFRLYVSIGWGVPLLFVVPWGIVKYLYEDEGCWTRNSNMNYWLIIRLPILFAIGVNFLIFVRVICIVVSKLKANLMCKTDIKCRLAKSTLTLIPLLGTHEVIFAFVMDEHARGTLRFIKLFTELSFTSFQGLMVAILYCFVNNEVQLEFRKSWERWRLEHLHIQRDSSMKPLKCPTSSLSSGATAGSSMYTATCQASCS
T2 sequence (P47871 26-477): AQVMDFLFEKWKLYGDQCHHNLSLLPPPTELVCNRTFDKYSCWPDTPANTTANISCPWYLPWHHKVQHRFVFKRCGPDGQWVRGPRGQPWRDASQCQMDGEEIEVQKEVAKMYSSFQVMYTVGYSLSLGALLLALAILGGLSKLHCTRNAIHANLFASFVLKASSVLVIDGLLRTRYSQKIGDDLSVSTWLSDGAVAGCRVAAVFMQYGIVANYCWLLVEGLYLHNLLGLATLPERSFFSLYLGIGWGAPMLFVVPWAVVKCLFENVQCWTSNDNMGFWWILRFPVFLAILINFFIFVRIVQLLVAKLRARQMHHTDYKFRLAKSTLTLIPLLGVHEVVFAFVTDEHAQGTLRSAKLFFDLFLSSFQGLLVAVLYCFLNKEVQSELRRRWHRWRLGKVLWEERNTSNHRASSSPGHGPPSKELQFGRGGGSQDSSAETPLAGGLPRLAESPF
Description for human GLP-1 receptor: (§1) A further series of cellular assays was carried out with standard cellular assays (DiscoveRx, LeadHunter assays) using readout of cAMP stimulation or arrestin activation. Compounds were weighed precisely in an amount of about 1 mg and shipped to DiscoveRx for dilution and assay.
Description for human glucagon receptor: as §1

Consider `CCCCCCCCCCCCCCCCO[C@@H]1O[C@H](C(=O)NCCCC[C@H](NC(=O)[C@@H](NC(=O)[C@H](Cc2ccccc2)NC(=O)[C@H](CCC(=O)O)NC(=O)[C@@H]2CCCCNC(=O)CC[C@H](NC(=O)[C@H](CC(=O)O)NC(=O)[C@H](CC(C)C)NC(=O)[C@H](Cc3ccc(O)cc3)NC(=O)[C@H](CCCCN)NC(=O)[C@H](CO)NC(=O)[C@H](Cc3ccc(O)cc3)NC(=O)[C@H](CC(=O)O)NC(=O)[C@H](CO)NC(=O)[C@@H](NC(=O)[C@H](Cc3ccccc3)NC(=O)[C@@H](NC(=O)CNC(=O)[C@H](CCC(N)=O)NC(=O)C(C)(C)NC(=O)[C@@H](N)Cc3c[nH]cn3)[C@@H](C)O)[C@@H](C)O)C(=O)N[C@@H](CCC(N)=O)C(=O)N[C@@H](C)C(=O)N[C@@H](C)C(=O)N2)[C@@H](C)CC)C(=O)N[C@@H](Cc2c[nH]c3ccccc23)C(=O)N[C@@H](CC(C)C)C(=O)N[C@@H](CC(C)C)C(=O)N[C@@H](CCC(N)=O)C(=O)N[C@H](C(=O)NCCOCCOCCOCCOCCC(=O)O)[C@@H](C)O)[C@@H](O)[C@H](O)[C@H]1O` [EU-A1635], for which the negative-log EC50 (pEC50) was 10.15 at human GLP-1 receptor and 8.70 at human glucagon receptor.

On to `CCCCCCCCCCCCO[C@@H]1O[C@H](C(=O)NCCCC[C@H](NC(=O)[C@@H](NC(=O)[C@H](Cc2ccccc2)NC(=O)[C@H](CCC(=O)O)NC(=O)[C@@H]2CCCCNC(=O)CC[C@H](NC(=O)[C@H](CC(=O)O)NC(=O)[C@H](CC(C)C)NC(=O)[C@H](Cc3ccc(O)cc3)NC(=O)[C@H](CCCCN)NC(=O)[C@H](CO)NC(=O)[C@H](Cc3ccc(O)cc3)NC(=O)[C@H](CC(=O)O)NC(=O)[C@H](CO)NC(=O)[C@@H](NC(=O)[C@H](Cc3ccccc3)NC(=O)[C@@H](NC(=O)CNC(=O)[C@H](CCC(N)=O)NC(=O)C(C)(C)NC(=O)[C@@H](N)Cc3c[nH]cn3)[C@@H](C)O)[C@@H](C)O)C(=O)N[C@@H](CCC(N)=O)C(=O)N[C@@H](C)C(=O)N[C@@H](C)C(=O)N2)[C@@H](C)CC)C(=O)N[C@@H](Cc2c[nH]c3ccccc23)C(=O)N[C@@H](CC(C)C)C(=O)N[C@@H](CC(C)C)C(=O)N[C@@H](CCC(N)=O)C(=O)N[C@H](C(=O)NCCOCCOCCOCCOCCOCCOCCOCCOCCC(=O)O)[C@@H](C)O)[C@@H](O)[C@H](O)[C@H]1O` [EU-A1645], for which the pEC50 at human GLP-1 receptor was 10.54; on human glucagon receptor it was 10.04.

On to `CCCCCCCCCCCCCCO[C@@H]1O[C@H](C(=O)NCCCC[C@H](NC(=O)[C@@H](NC(=O)[C@H](Cc2ccccc2)NC(=O)[C@H](CCC(=O)O)NC(=O)[C@@H]2CCCCNC(=O)CC[C@H](NC(=O)[C@H](CC(=O)O)NC(=O)[C@H](CC(C)C)NC(=O)[C@H](Cc3ccc(O)cc3)NC(=O)[C@H](CCCCN)NC(=O)[C@H](CO)NC(=O)[C@H](Cc3ccc(O)cc3)NC(=O)[C@H](CC(=O)O)NC(=O)[C@H](CO)NC(=O)[C@@H](NC(=O)[C@H](Cc3ccccc3)NC(=O)[C@@H](NC(=O)CNC(=O)[C@H](CCC(N)=O)NC(=O)C(C)(C)NC(=O)[C@@H](N)Cc3c[nH]cn3)[C@@H](C)O)[C@@H](C)O)C(=O)N[C@@H](CCC(N)=O)C(=O)N[C@@H](C)C(=O)N[C@@H](C)C(=O)N2)[C@@H](C)CC)C(=O)N[C@@H](Cc2c[nH]c3ccccc23)C(=O)N[C@@H](CC(C)C)C(=O)N[C@@H](CC(C)C)C(=O)N[C@@H](CCC(N)=O)C(=O)N[C@H](C(=O)NCCOCCOCCOCCOCCOCCOCCOCCOCCC(=O)O)[C@@H](C)O)[C@@H](O)[C@H](O)[C@H]1O` [EU-A1646], for which the pEC50 on human GLP-1 receptor is 10.54; on human glucagon receptor, 9.48.

On to `CCCCCCCCCCCCCCCCO[C@@H]1O[C@H](C(=O)NCCCC[C@H](NC(=O)[C@@H](NC(=O)[C@H](Cc2ccccc2)NC(=O)[C@H](CCC(=O)O)NC(=O)[C@@H]2CCCCNC(=O)CC[C@H](NC(=O)[C@H](CC(=O)O)NC(=O)[C@H](CC(C)C)NC(=O)[C@H](Cc3ccc(O)cc3)NC(=O)[C@H](CCCCN)NC(=O)[C@H](CO)NC(=O)[C@H](Cc3ccc(O)cc3)NC(=O)[C@H](CC(=O)O)NC(=O)[C@H](CO)NC(=O)[C@@H](NC(=O)[C@H](Cc3ccccc3)NC(=O)[C@@H](NC(=O)CNC(=O)[C@H](CCC(N)=O)NC(=O)C(C)(C)NC(=O)[C@@H](N)Cc3c[nH]cn3)[C@@H](C)O)[C@@H](C)O)C(=O)N[C@@H](CCC(N)=O)C(=O)N[C@@H](C)C(=O)N[C@@H](C)C(=O)N2)[C@@H](C)CC)C(=O)N[C@@H](Cc2c[nH]c3ccccc23)C(=O)N[C@@H](CC(C)C)C(=O)N[C@@H](CC(C)C)C(=O)N[C@@H](CCC(N)=O)C(=O)N[C@H](C(=O)NCCOCCOCCOCCOCCOCCOCCOCCOCCC(=O)O)[C@@H](C)O)[C@@H](O)[C@H](O)[C@H]1O` [EU-A1647], for which the pEC50 on human GLP-1 receptor is 9.95; at human glucagon receptor, 8.72.

As to `CCCCCCCCO[C@@H]1O[C@H](C(=O)NCCCC[C@H](NC(=O)[C@@H](NC(=O)[C@H](Cc2ccccc2)NC(=O)[C@H](CCC(=O)O)NC(=O)[C@@H]2CCCCNC(=O)CC[C@H](NC(=O)[C@H](CC(=O)O)NC(=O)[C@H](CC(C)C)NC(=O)[C@H](Cc3ccc(O)cc3)NC(=O)[C@H](CCCCN)NC(=O)[C@H](CO)NC(=O)[C@H](Cc3ccc(O)cc3)NC(=O)[C@H](CC(=O)O)NC(=O)[C@H](CO)NC(=O)[C@@H](NC(=O)[C@H](Cc3ccccc3)NC(=O)[C@@H](NC(=O)CNC(=O)[C@H](CCC(N)=O)NC(=O)C(C)(C)NC(=O)[C@@H](N)Cc3c[nH]cn3)[C@@H](C)O)[C@@H](C)O)C(=O)N[C@@H](CCC(N)=O)C(=O)N[C@@H](C)C(=O)N[C@@H](C)C(=O)N2)[C@@H](C)CC)C(=O)N[C@@H](Cc2c[nH]c3ccccc23)C(=O)N[C@@H](CC(C)C)C(=O)N[C@@H](CC(C)C)C(=O)N[C@@H](CCC(N)=O)C(=O)N[C@H](C(=O)O)[C@@H](C)O)[C@@H](O)[C@H](O)[C@H]1O` [EU-A1679], the pEC50 at human GLP-1 receptor is 11.05; on human glucagon receptor, 9.85.

Turning to `CCCCCCCCCCO[C@@H]1O[C@H](C(=O)NCCCC[C@H](NC(=O)[C@@H](NC(=O)[C@H](Cc2ccccc2)NC(=O)[C@H](CCC(=O)O)NC(=O)[C@@H]2CCCCNC(=O)CC[C@H](NC(=O)[C@H](CC(=O)O)NC(=O)[C@H](CC(C)C)NC(=O)[C@H](Cc3ccc(O)cc3)NC(=O)[C@H](CCCCN)NC(=O)[C@H](CO)NC(=O)[C@H](Cc3ccc(O)cc3)NC(=O)[C@H](CC(=O)O)NC(=O)[C@H](CO)NC(=O)[C@@H](NC(=O)[C@H](Cc3ccccc3)NC(=O)[C@@H](NC(=O)CNC(=O)[C@H](CCC(N)=O)NC(=O)C(C)(C)NC(=O)[C@@H](N)Cc3c[nH]cn3)[C@@H](C)O)[C@@H](C)O)C(=O)N[C@@H](CCC(N)=O)C(=O)N[C@@H](C)C(=O)N[C@@H](C)C(=O)N2)[C@@H](C)CC)C(=O)N[C@@H](Cc2c[nH]c3ccccc23)C(=O)N[C@@H](CC(C)C)C(=O)N[C@@H](CC(C)C)C(=O)N[C@@H](CCC(N)=O)C(=O)N[C@H](C(=O)O)[C@@H](C)O)[C@@H](O)[C@H](O)[C@H]1O` [EU-A1680], the figures for the pEC50 on human GLP-1 receptor and on human glucagon receptor were 10.59 and 9.94, respectively.

For `CCCCCCCCCCCCO[C@@H]1O[C@H](C(=O)NCCCC[C@H](NC(=O)[C@@H](NC(=O)[C@H](Cc2ccccc2)NC(=O)[C@H](CCC(=O)O)NC(=O)[C@@H]2CCCCNC(=O)CC[C@H](NC(=O)[C@H](CC(=O)O)NC(=O)[C@H](CC(C)C)NC(=O)[C@H](Cc3ccc(O)cc3)NC(=O)[C@H](CCCCN)NC(=O)[C@H](CO)NC(=O)[C@H](Cc3ccc(O)cc3)NC(=O)[C@H](CC(=O)O)NC(=O)[C@H](CO)NC(=O)[C@@H](NC(=O)[C@H](Cc3ccccc3)NC(=O)[C@@H](NC(=O)CNC(=O)[C@H](CCC(N)=O)NC(=O)C(C)(C)NC(=O)[C@@H](N)Cc3c[nH]cn3)[C@@H](C)O)[C@@H](C)O)C(=O)N[C@@H](CCC(N)=O)C(=O)N[C@@H](C)C(=O)N[C@@H](C)C(=O)N2)[C@@H](C)CC)C(=O)N[C@@H](Cc2c[nH]c3ccccc23)C(=O)N[C@@H](CC(C)C)C(=O)N[C@@H](CC(C)C)C(=O)N[C@@H](CCC(N)=O)C(=O)N[C@H](C(=O)O)[C@@H](C)O)[C@@H](O)[C@H](O)[C@H]1O` [EU-A1681], the negative-log EC50 (pEC50) was 11.05 at human GLP-1 receptor and 9.88 on human glucagon receptor.

For the molecule `CCCCCCCCCCCCCCO[C@@H]1O[C@H](C(=O)NCCCC[C@H](NC(=O)[C@@H](NC(=O)[C@H](Cc2ccccc2)NC(=O)[C@H](CCC(=O)O)NC(=O)[C@@H]2CCCCNC(=O)CC[C@H](NC(=O)[C@H](CC(=O)O)NC(=O)[C@H](CC(C)C)NC(=O)[C@H](Cc3ccc(O)cc3)NC(=O)[C@H](CCCCN)NC(=O)[C@H](CO)NC(=O)[C@H](Cc3ccc(O)cc3)NC(=O)[C@H](CC(=O)O)NC(=O)[C@H](CO)NC(=O)[C@@H](NC(=O)[C@H](Cc3ccccc3)NC(=O)[C@@H](NC(=O)CNC(=O)[C@H](CCC(N)=O)NC(=O)C(C)(C)NC(=O)[C@@H](N)Cc3c[nH]cn3)[C@@H](C)O)[C@@H](C)O)C(=O)N[C@@H](CCC(N)=O)C(=O)N[C@@H](C)C(=O)N[C@@H](C)C(=O)N2)[C@@H](C)CC)C(=O)N[C@@H](Cc2c[nH]c3ccccc23)C(=O)N[C@@H](CC(C)C)C(=O)N[C@@H](CC(C)C)C(=O)N[C@@H](CCC(N)=O)C(=O)N[C@H](C(=O)O)[C@@H](C)O)[C@@H](O)[C@H](O)[C@H]1O` [EU-A1682], the negative logarithm of the EC50 (pEC50) at human GLP-1 receptor is 9.68; on human glucagon receptor, 8.90.

Turning to `CCCCCCCCCCO[C@@H]1O[C@H](C(=O)NCCCC[C@H](N)C(=O)NCCCC[C@H](NC(=O)[C@@H](NC(=O)[C@H](Cc2ccccc2)NC(=O)[C@H](CCC(=O)O)NC(=O)[C@@H]2CCCCNC(=O)CC[C@H](NC(=O)[C@H](CC(=O)O)NC(=O)[C@H](CC(C)C)NC(=O)[C@H](Cc3ccc(O)cc3)NC(=O)[C@H](CCCCN)NC(=O)[C@H](CO)NC(=O)[C@H](Cc3ccc(O)cc3)NC(=O)[C@H](CC(=O)O)NC(=O)[C@H](CO)NC(=O)[C@@H](NC(=O)[C@H](Cc3ccccc3)NC(=O)[C@@H](NC(=O)CNC(=O)[C@H](CCC(N)=O)NC(=O)C(C)(C)NC(=O)[C@@H](N)Cc3c[nH]cn3)[C@@H](C)O)[C@@H](C)O)C(=O)N[C@@H](CCC(N)=O)C(=O)N[C@@H](C)C(=O)N[C@@H](C)C(=O)N2)[C@@H](C)CC)C(=O)N[C@@H](Cc2c[nH]c3ccccc23)C(=O)N[C@@H](CC(C)C)C(=O)N[C@@H](CC(C)C)C(=O)N[C@@H](CCC(N)=O)C(=O)N[C@H](C(N)=O)[C@@H](C)O)[C@@H](O)[C@H](O)[C@H]1O` [EU-A1710], the pEC50 is 10.59 on human GLP-1 receptor and 10.19 on human glucagon receptor.
